Data: paper PMC3643963, “Enhancement of Proteolytic Activity of a Thermostable Papain-Like Protease by Structure-Based Rational Design” (PLoS ONE, 2013)

Legend:
Test in all cases: residual activity, pNA release at […] nm
Format in all cases: biochemical
Conditions in all cases: read-out: IC50 against E-64
[1] = biological target: Ervatamin-C (Erv-C) (Tabernaemontana divaricata, UniProt A8DS38, A200Y)
[2] = biological target: Ervatamin-C (Erv-C) (Tabernaemontana divaricata, UniProt A8DS38)
[3] = biological target: Ervatamin-C (Erv-C) (Tabernaemontana divaricata, UniProt A8DS38, A200Y/S165T)
Ervatamin-C (Erv-C) (Tabernaemontana divaricata, UniProt A8DS38, A200Y/S165T), sequence (A8DS38 134-341 S165T/A200Y): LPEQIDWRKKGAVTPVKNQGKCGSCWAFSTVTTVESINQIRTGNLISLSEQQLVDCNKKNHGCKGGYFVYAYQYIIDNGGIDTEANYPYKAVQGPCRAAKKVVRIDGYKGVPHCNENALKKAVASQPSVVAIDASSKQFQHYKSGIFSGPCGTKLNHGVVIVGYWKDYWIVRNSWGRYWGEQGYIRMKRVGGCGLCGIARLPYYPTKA

Ervatamin-C (Erv-C) (Tabernaemontana divaricata, UniProt A8DS38), sequence (A8DS38 134-341): as the sequence (A8DS38 134-341 S165T/A200Y) above, with T32S, Y67A counted along it
Ervatamin-C (Erv-C) (Tabernaemontana divaricata, UniProt A8DS38, A200Y), sequence (A8DS38 134-341 A200Y): as the sequence (A8DS38 134-341 S165T/A200Y) above, with T32S counted along it

What does the source list for CC(C)C[C@H](NC(=O)[C@H]1O[C@@H]1C(=O)O)C(=O)NCCCCN=C(N)N [E-64]?
IC50 [1]: 0.251 µM; IC50 [2]: 0.349 µM; IC50 [3]: 0.171 µM
